Measurements published in US20140186271A1, “REDUCING DENTAL CARIES” (UNIVERSITY OF ROCHESTER, priority 2011, published 2014).
Values after ≈ are worked out from the molar mass of the structure shown.

What was measured:
Type in all cases: cell-based
[1] = system: Streptococcus mutans UA159; assay: growth of S. mutans in planktonic culture (optical density at 600 nm, BHI medium); details: rich medium, FIG. 1
Experimental: Bacterial Strain. The strain of Streptococcus mutans used in these experiments is referred to as UA159, the genomic type strain of these organisms (Murchison et al., Infect. Immun. 54(2):273-82 (1986); Ajdic et al., Proc. Natl. Acad. Sci. USA 99(22):14434-9 (2002)). Growth experiments. Two types of growth experiments were conducted: growth of the organism in planktonic culture and growth of the organism in a mono-species biofilm culture. In the planktonic culture experiments, the effects of simvastatin concentration on the growth ability of Streptococcus mutans UA159 was determined. In the second set of experiments, the effects of simvastatin concentration on the ability of S. mutans to produce extracellular polysaccharides (EPS), which is highly related to its ability to grow and survive on the surfaces of teeth (Yamashita et al., Infect. Immun 61(9):3811-7 (1993)), was determined. The planktonic experiments were conducted by growing S. mutans in Brain Heart Infusion medium (BHI) supplemented with specific concentrations of simvastatin dissolved in 1% ethanol/99% water. Simvastatin was obtained from Sigma Chemical Co. (St. Louis, Mo.). Growth was monitored as increasing optical density at 600 nm, using a BioScreen C automated-recording instrument, set at 37° C. and with shaking set at 10 seconds, every 15 minutes, to ensure suspension of the culture (Growth Curves USA, N.J.). […]

E. faecalis = assay: minimum inhibitory concentration against a panel of human pathogens; details: Enterococcus faecalis
Experimental: (§1) Using well established methodologies, the minimum inhibitory concentration of simvastatin was determined against a panel of human pathogens.

S. aureus = assay: as above; details: Staphylococcus aureus
Experimental: as §1

Klebsiella = assay: as above
Experimental: as §1

P. aeruginosa = assay: as above; details: Pseudomonas aeruginosa
Experimental: as §1

S. mutans = assay: as above; details: Streptococcus mutans
Experimental: as §1

E. faecium = assay: as above; details: Enterococcus faecium
Experimental: as §1

CCC(C)(C)C(=O)O[C@H]1C[C@@H](C)C=C2C=C[C@H](C)[C@H](CC[C@@H]3C[C@@H](O)CC(=O)O3)[C@H]21 [simvastatin]
concentration at which growth was effectively halted [1]: ≥ 64 µg/mL
MIC (E. faecalis): 64 µg/mL (≈ 153 µM)
MIC (S. aureus): 64 µg/mL (≈ 153 µM)
MIC (Klebsiella): 64 µg/mL (≈ 153 µM)
MIC (P. aeruginosa): > 256 µg/mL
MIC (S. mutans): 16 µg/mL (≈ 38.2 µM)
MIC (E. faecium): 64 µg/mL (≈ 153 µM)
